In US20020137929A1, “1 - (3-heterocyclylphenyl) isothiourea, -isourea, -guanidine and -amidine herbicidal agents” (Intellectual Property Department, BASF Aktiengesellschaft, priority 1998, published 2002):

Assays:
[1] = system: ABUTH (Velvetleaf); assay: Postemergence herbicidal evaluation; assay type: in vivo, Abutilon theophrasti; conditions: postemergence
Procedure, shortened: (§1)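 Each compound, dispersed in an acetone/water mix (50/50) carrying 0.5% TWEEN 20, is nozzle-sprayed at 40 psi on approximately two-week-old seedlings at about 0.0156–0.500 kg/ha. Plants are assessed 4–5 weeks afterward on a 0–9 scale relative to control; duplicate tests are averaged.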

[2] = system: CHEAL (Lambsquarters, Common); assay: Postemergence herbicidal evaluation; assay type: in vivo, Chenopodium album; conditions: postemergence
Procedure, shortened: as §1

[3] = system: IPOHE (Morningglory, Ivyleaf); assay: Postemergence herbicidal evaluation; assay type: in vivo, Ipomoea hederacea; conditions: postemergence
Procedure, shortened: as §1

[4] = system: ECHCG (Barnyardgrass); assay: Postemergence herbicidal evaluation; assay type: in vivo, Echinochloa crus-galli; conditions: postemergence
Procedure, shortened: as §1

[5] = system: SETVI (Foxtail, Green); assay: Postemergence herbicidal evaluation; assay type: in vivo, Setaria viridis; conditions: postemergence
Procedure, shortened: as §1

[6] = system: ORYSAT (Rice, Tebonnet); assay: Postemergence herbicidal evaluation; assay type: in vivo, Oryza sativa, (L.) Tebonnet; conditions: postemergence
Procedure, shortened: as §1

[7] = system: ZEAMX (Corn, Field); assay: Postemergence herbicidal evaluation; assay type: in vivo, Zea mays; conditions: postemergence
Procedure, shortened: as §1

[8] = system: ABUTH (Velvetleaf); assay: Preemergence herbicidal evaluation; assay type: in vivo, Abutilon theophrasti; conditions: rated 4-5 weeks after treatment
Procedure, shortened: (§2)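 Preemergence soil application of compound, sprayed in aqueous acetone at rates equivalent to about 0.0156 to 0.500 kg per hectare onto freshly sown cups. Plant response was judged by eye on a 0-9 scale four to five weeks later.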

[9] = system: CASOB (Sicklepod); assay: Preemergence herbicidal evaluation; assay type: in vivo, Cassia obtusifolia; conditions: rated 4-5 weeks after treatment
Procedure, shortened: as §2

[10] = system: CHEAL (Lambsquarters, Common); assay: Preemergence herbicidal evaluation; assay type: in vivo, Chenopodium album; conditions: rated 4-5 weeks after treatment
Procedure, shortened: as §2

[11] = system: IPOHE (Morningglory, Ivyleaf); assay: Preemergence herbicidal evaluation; assay type: in vivo, Ipomoea hederacea; conditions: rated 4-5 weeks after treatment
Procedure, shortened: as §2

[12] = system: ECHCG (Barnyardgrass); assay: Preemergence herbicidal evaluation; assay type: in vivo, Echinochloa crus-galli; conditions: rated 4-5 weeks after treatment
Procedure, shortened: as §2

[13] = system: GLXMAW (Soybean, Williams); assay: Preemergence herbicidal evaluation; assay type: in vivo, Glycine max, (L.) Merr. cv Williams; conditions: rated 4-5 weeks after treatment
Procedure, shortened: as §2

[14] = system: TRZAWR (Wheat, Winter, cv Riband); assay: Preemergence herbicidal evaluation; assay type: in vivo, Triticum aestivum; conditions: rated 4-5 weeks after treatment
Procedure, shortened: as §2

[15] = system: ZEAMX (Corn, Field); assay: Preemergence herbicidal evaluation; assay type: in vivo, Zea mays; conditions: rated 4-5 weeks after treatment
Procedure, shortened: as §2

## Cn1c(C(F)(F)F)cc(=O)n(-c2cc(N=C3SCC(=O)N3C3CCC3)c(Cl)cc2F)c1=O [Compound 168, 3-{4-Chloro-5-[(3-cyclobutyl-4-oxo-2-thiazolidinylidene)amino]-2-fluorophenyl}-1-methyl-6-(trifluoromethyl)-2,4(1H,3H)-pyrimidinedione]
[1]; rate 0.0156 kg/ha
  Herbicidal rating ABUTH: 9.0
[1]; rate 0.0313 kg/ha
  Herbicidal rating ABUTH: 9.0
[1]; rate 0.0625 kg/ha
  Herbicidal rating ABUTH: 9.0
[2]; rate 0.0156 kg/ha
  Herbicidal rating CHEAL: 2.0
[2]; rate 0.0313 kg/ha
  Herbicidal rating CHEAL: 3.0
[2]; rate 0.0625 kg/ha
  Herbicidal rating CHEAL: 4.0
[3]; rate 0.0156 kg/ha
  Herbicidal rating IPOHE: 5.0
[3]; rate 0.0313 kg/ha
  Herbicidal rating IPOHE: 9.0
[3]; rate 0.0625 kg/ha
  Herbicidal rating IPOHE: 9.0
[4]; rate 0.0156 kg/ha
  Herbicidal rating ECHCG: 0.0
[4]; rate 0.0313 kg/ha
  Herbicidal rating ECHCG: 0.0
[4]; rate 0.0625 kg/ha
  Herbicidal rating ECHCG: 4.0
[5]; rate 0.0156 kg/ha
  Herbicidal rating SETVI: 0.0
[5]; rate 0.0313 kg/ha
  Herbicidal rating SETVI: 0.0
[5]; rate 0.0625 kg/ha
  Herbicidal rating SETVI: 3.0
[6]; rate 0.0156 kg/ha
  Herbicidal rating ORYSAT: 1.0
[6]; rate 0.0313 kg/ha
  Herbicidal rating ORYSAT: 1.5
[6]; rate 0.0625 kg/ha
  Herbicidal rating ORYSAT: 2.5
[7]; rate 0.0156 kg/ha
  Herbicidal rating ZEAMX: 4.5
[7]; rate 0.0313 kg/ha
  Herbicidal rating ZEAMX: 4.5
[7]; rate 0.0625 kg/ha
  Herbicidal rating ZEAMX: 7.0
[8]; 0.0156 kg/ha
  Preemergence herbicidal rating ABUTH: 0.0
[8]; 0.0313 kg/ha
  Preemergence herbicidal rating ABUTH: 0.0
[8]; 0.0625 kg/ha
  Preemergence herbicidal rating ABUTH: 4.0
[8]; 0.1250 kg/ha
  Preemergence herbicidal rating ABUTH: 9.0
[8]; 0.2500 kg/ha
  Preemergence herbicidal rating ABUTH: 9.0
[9]; 0.0156 kg/ha
  Preemergence herbicidal rating CASOB: 0.0
[9]; 0.0313 kg/ha
  Preemergence herbicidal rating CASOB: 0.0
[9]; 0.0625 kg/ha
  Preemergence herbicidal rating CASOB: 0.0
[9]; 0.1250 kg/ha
  Preemergence herbicidal rating CASOB: 0.0
[9]; 0.2500 kg/ha
  Preemergence herbicidal rating CASOB: 0.0
[10]; 0.0156 kg/ha
  Preemergence herbicidal rating CHEAL: 3.0
[10]; 0.0313 kg/ha
  Preemergence herbicidal rating CHEAL: 9.0
[10]; 0.0625 kg/ha
  Preemergence herbicidal rating CHEAL: 9.0
[10]; 0.1250 kg/ha
  Preemergence herbicidal rating CHEAL: 9.0
[10]; 0.2500 kg/ha
  Preemergence herbicidal rating CHEAL: 9.0
[11]; 0.0156 kg/ha
  Preemergence herbicidal rating IPOHE: 0.0
[11]; 0.0313 kg/ha
  Preemergence herbicidal rating IPOHE: 0.0
[11]; 0.0625 kg/ha
  Preemergence herbicidal rating IPOHE: 0.0
[11]; 0.1250 kg/ha
  Preemergence herbicidal rating IPOHE: 3.0
[11]; 0.2500 kg/ha
  Preemergence herbicidal rating IPOHE: 4.0
[12]; 0.0156 kg/ha
  Preemergence herbicidal rating ECHCG: 0.0
[12]; 0.0313 kg/ha
  Preemergence herbicidal rating ECHCG: 0.0
[12]; 0.0625 kg/ha
  Preemergence herbicidal rating ECHCG: 0.0
[12]; 0.1250 kg/ha
  Preemergence herbicidal rating ECHCG: 0.0
[12]; 0.2500 kg/ha
  Preemergence herbicidal rating ECHCG: 0.0
[13]; 0.0156 kg/ha
  Preemergence herbicidal rating GLXMAW: 0.0
[13]; 0.0313 kg/ha
  Preemergence herbicidal rating GLXMAW: 0.0
[13]; 0.0625 kg/ha
  Preemergence herbicidal rating GLXMAW: 0.0
[13]; 0.1250 kg/ha
  Preemergence herbicidal rating GLXMAW: 0.0
[13]; 0.2500 kg/ha
  Preemergence herbicidal rating GLXMAW: 0.0
[14]; 0.0156 kg/ha
  Preemergence herbicidal rating TRZAWR: 0.0
[14]; 0.0313 kg/ha
  Preemergence herbicidal rating TRZAWR: 0.0
[14]; 0.0625 kg/ha
  Preemergence herbicidal rating TRZAWR: 0.0
[14]; 0.1250 kg/ha
  Preemergence herbicidal rating TRZAWR: 0.0
[14]; 0.2500 kg/ha
  Preemergence herbicidal rating TRZAWR: 0.0
[15]; 0.0156 kg/ha
  Preemergence herbicidal rating ZEAMX: 0.0
[15]; 0.0313 kg/ha
  Preemergence herbicidal rating ZEAMX: 0.0
[15]; 0.0625 kg/ha
  Preemergence herbicidal rating ZEAMX: 0.0
[15]; 0.1250 kg/ha
  Preemergence herbicidal rating ZEAMX: 0.0
[15]; 0.2500 kg/ha
  Preemergence herbicidal rating ZEAMX: 0.0
